Data set [1] concerns monocytes. As to the kind of experiment: Cytokine multiplex analysis of supernatants of differentiated monocytes. Format: cell-based, human. Also on record: GM-CSF release / MIP-1α release / MIP-1β release / MIG release / RANTES release / MCP-1 release / IL-2R release / VEGF release / G-CSF release / HGF release / FGF-Basic release / IL-4 release / IL-7 release / IFN-α release / IFN-γ release: unit not given here. The conditions noted are these: for FGF-Basic release / G-CSF release / HGF release / IFN-α release / IFN-γ release / IL-2R release / IL-4 release / IL-7 release / MCP-1 release / MIG release / MIP-1α release / MIP-1β release / RANTES release / VEGF release / GM-CSF release: supernatant, monocytes differentiated 6 days, Mean ± SEM. An excerpt: (§1) This study was approved by the Institutional Human Subject's Review Board (City of Hope National Medical Center). Peripheral blood mononuclear cells (PBMCs) were isolated from citrated blood by centrifugation over Ficoll-Paque Plus (GE healthcare biosciences, Pittsburgh, Pa., USA) density gradient. Monocytes were separated using EasySep® Human Monocyte Enrichment Kit (StemCell Technologies Inc, Vancouver, Canada) from PBMCs. The purified monocytes were stained with anti-CD14-FITC and checked by using flow cytometry FACSCanton II. Monocytes with >95% purity were suspended at 1×10^6 cells/mL in RPMI 1640 medium supplement with 10% FBS (FBS contained <5 pg/100 mL LPS).
(§2) After isolation of monocytes as described in the examples above, monocytes were treated with serial dose of LL-37 (0.625 μM, 1.25 μM, 2.5 μM, 5 μM, or 10 μM) for differentiation for 3 days, 6 days, 14 days or more. After incubating for 6 days, cultures were fed every 2 days by removing half of the supernatant and adding fresh medium. For macrophage differentiation, monocytes were treated with medium only (Falzoni et al. 1995), with 100 ng/mL LPS (Palucka et al. 1999), 10 ng/mL GM-CSF (macrophage 1, Mφ1), or 50 ng/mL M-CSF (macrophage 2, Mφ2) for 6 days (Verreck et al. 2004). Monocyte-derived DCs were generated with 1,000 U/mL GM-CSF and 500 units/mL IL-4 (Verreck et al. 2004) or GM-CSF and 1000 U/mL IFNα (Tosello et al. 2009). Osteoclasts were differentiated from monocytes in the presence of RANKL and M-CSF (both at 25 ng/mL) (Sorensen et al. 2007).
Fresh monocytes were plated at 1×10^6 cells/mL in RPMI 1640 medium containing 10% FBS in 48-well plates and incubated with medium only, LL-37, LPS, GM-CSF, M-CSF, M-CSF/RANKL for 6 days, or/and 14 days and 21 days. Supernatant was collected and analyzed using the Human Cytokine 30-Plex antibody bead kit from Biosource International Inc., including IL-1-β, IL-1 ra, IL-2, IL-2R, IL-4, IL-5, IL-6, IL-7, IL-8, IL-10, IL-12, IL-13, IL-15, IL-17, TNFα, IFNα, IFNγ, G-CSF, GM-CSF, MIP-1α, MIP-1β, MIG, RANTES, eotaxin, MCP-1, IP-10, VEGF, HGF, FGF-basic, and […]. Cytokine concentrations were calculated using Bio-Plex Manager 3.0 software with an eight-parameter, curve-fitting algorithm applied for standard curve calculations (Zhang et al. 2008b).

Data set [2] deals with monocytes. Briefly: Monocyte differentiation and survival (morphology, cell number). Format: cell-based, human.
From the text: as §1
Negatively isolated monocytes at the concentration of 1×10^6/mL were incubated in […] medium with 10% FBS in the presence or absence of LL-37. […] The maximum effect occurred at the dose of 5 μM LL-37 after which higher doses (≧10 μM) led to decreased cell numbers due to toxicity of LL-37 >10 μM (Zhang et al. 2008a; Johansson et al. 1998). After 14 days, the cell number of untreated controls decreased further, but the LL-37-differentiated monocytes survived with an apparent further increase in the diameter of the round adherent cells. […] There was no evidence of cell-cell fusion in the creation of giant cells. Together these analyses indicate that LL-37 can progressively differentiate monocytes into large round adherent cells at early times with giant cells and irregular shaped cells appearing at later times.
as §2
Monocytes were plated in culture media and treated with LL-37 (dose shown in the figures), LPS (100 ng/mL), GM-CSF (10 ng/mL), M-CSF (50 ng/mL), GM-CSF (1,000 U/mL)/IL-4 (500 units/mL), GM-CSF (1,000 U/mL)/IFNα (1,000 U/mL), or MCSF/RANKL (both at 25 ng/mL) and photographed with the Leica DMI 3000B (Leica Microsystems Inc, Bonnockburn, Ill. 60015) inverted microscope.

The subject of data set [3] is monocytes. As to the kind of experiment: Bone resorption assay on BioCoat Osteologic Discs (phase contrast, SEM, von Kossa). In kind it is cell-based, human. How it is done: The resorbing activity was evaluated by using BioCoat™ Osteologic™ Discs purchased from BD Biosciences as a mineral matter in 24-well plate. […] The plates were washed by rinsing distilled water and pit formation was observed by light microscopy (Yuasa et al. 2007) and scanning electron microscopy (SEM). […]
BioCoat™ Osteologic™ Discs fixed in 2.5% glutaraldehyde in 0.1 M phosphate buffer, pH 7.2 (buffer A) for 1 hour from bone resorption assay were washed three times in buffer A, postfixed with 1% osmium tetroxide in buffer A, then dehydrated in graded ethanol. The 100% ethanol solution was then replaced by propylene oxide, and the cells were embedded in Eponate. Thin sections were stained with uranyl acetate and lead citrate and examined with a FEI TECNAI G2 electron microscope.
Discs were photographed using phase contrast microscopy (magnification 200×).

The test system of data set [4] is monocytes. As to the kind of experiment: Phagocytosis of fluorescent labeled latex beads. To be noted: 6-day differentiated cells, beads 1:500, 1 hour at 37° C. In kind it is cell-based, human. The method, then: 6-day LL-37-, medium-, LPS-, GM-CSF-, and M-CSF-differentiated monocytes (1×10^6/mL) in tissue culture medium supplemented with 10% FBS in a 24-well plate were mixed with fluorescent labeled latex beads at a multiplicity ratio of 1:500, and incubated for 1 hour at 37° C. After being washed three times, cells were analyzed using FACSCanton II and Flowjo software.

Data set [5] concerns monocytes. As to the kind of experiment: Flow cytometry of cell surface markers. The conditions noted are these: 6 days. Format: cell-based, human. An excerpt: For cell surface staining, cells were washed with PBS, blocked with 10% human serum in PBS, stained with isotype controls and antibodies described in the figures, washed 3 times with 1% BSA PBS, and analyzed with a FACSCanton II. For intracellular staining, cells were washed with PBS, fixed with 1% paraformaldehyde in PBS, permeabilized in PBS buffer containing 0.1% saponin (Sigma-Aldrich) and 2% BSA, and stained with primary isotype controls and antibodies shown in the figures. After washing with PBS containing 1% BSA and 0.1% saponin, cells were stained with secondary Alexa 488 conjugated antibodies. Stained cells were assessed with a FACSCanton II cytometer, and analyzed using Flowjo software.

In data set [6] the test system is monocytes. The conditions noted are these: cited from earlier work.

“GM-CSF: Recombinant human GM-CSF, produces macrophage 1 (Mφ1) [reference compound]”: in the data set on monocytes [1], the FGF-Basic release came out at 10.85 ± 0.22, the G-CSF release turned out to be 74.85 ± 2.60, the HGF release is listed as 505.18 ± 118.32 and the IFN-α release is on record as 14.33 ± 1.27. For the same molecule, in the data set with monocytes [1], the IFN-γ release worked out at 13.5 ± 0.47, the IL-2R release came to 47.16 ± 1.23, the IL-4 release was found to be 11.82 ± 0.98 and the IL-7 release is 26.89 ± 0.16. Further, in the data set on monocytes [1], the MCP-1 release was 15362.1 ± 7902.6, the MIG release is 17.21 ± 1.30, the MIP-1α release was 72.20 ± 6.18 and the MIP-1β release is reported as 70.42 ± 19.71. In the data set on monocytes [1], this molecule registered an RANTES release of 5.42 ± 1.85 and a VEGF release of 15.88 ± 2.99.

As for LL-37, the “IL-1ra, IL-10, IL-12, IP-10, GM-CSF production in response to LPS” value in the data set on monocytes [1] (6-day cells, 100 ng/mL LPS 18 hours, versus M-CSF/RANKL-differentiated monocytes) is given as “increased production”. For the same molecule, in the data set with monocytes [1] (6 days), the “IL-1ra release versus other macrophage lineages” value is “highest levels”, the “IL-1β release versus other macrophage lineages” value is “lowest level”, the “IL-6 release versus macrophages generated by the other methods” value is recorded as “significantly less” and the “IP-10 release versus macrophages generated by the other methods” value is given as “increased”. Further, in the data set with monocytes [1] (all time points analyzed), the “IL-1ra release versus osteoclasts” value was “higher levels” and the “IL-1β, IL-6, MCP-1 release versus osteoclasts” value was “lower levels”. In the data set on monocytes [1], the FGF-Basic release is listed as 10.28 ± 0.66, the G-CSF release was 51.79 ± 3.38, the GM-CSF release is given as 3.96 ± 0.30 and the HGF release is recorded as 772.94 ± 126.71. Besides, in the data set on monocytes [1], the IFN-α release worked out at 9.93 ± 0.14, the IFN-γ release worked out at 12.13 ± 0.88, the IL-2R release is 32.38 ± 7.04 and the IL-4 release amounted to 7.16 ± 0.59. In the data set with monocytes [1], this molecule gave an IL-7 release of 11.93 ± 1.96, an MCP-1 release of 7720.3 ± 972.2, an MIG release of 7.16 ± 1.31 and an MIP-1α release of 53.17 ± 12.97. Further, in the data set on monocytes [1], the MIP-1β release was 72.41 ± 9.86, the RANTES release amounted to 10.24 ± 3.87 and the VEGF release worked out at 3.88 ± 0.41. Also, the “doses that led to decreased cell numbers” value in the data set on monocytes [2] is not below 10 µM. Moreover, the “cell number versus untreated controls” value in the data set on monocytes [2] (5 μM, 6 days) is recorded as “significantly higher than untreated controls”. In addition, in the data set with monocytes [2] (6 days of treatment), the cell morphology entry is “differentiated into large round adherent cells”. In the data set with monocytes [2] (after 28 days, versus M-CSF/RANKL-derived osteoclasts), the “survival in terms of cell numbers” value is listed as “survive better than M-CSF/RANKL-derived osteoclasts”. In the data set with monocytes [2] (monocyte differentiation and cell number), the “dose of maximum effect” value was 5 µM. In the data set with monocytes [3] (3 weeks, cells removed by bleach, LL-37 5 μM, M-CSF/RANKL both 25 ng/mL), the “structures formed on Osteologic Discs” value is on record as “formed refractile specks on the discs instead of classical absorption pits”. The “von Kossa staining of granules (mineralization)” value in the data set on monocytes [3] (5 weeks of co-culture) is “positive von Kossa staining”. In the data set with monocytes [4], the phagocytic function result is listed as “retain their phagocytic function”. Also, the “expression of CD163, DC-SIGN, CD14 versus other macrophage lineages” value with monocytes [5] is on record as “lower levels”. Also, in the data set with monocytes [6], the “toxicity of LL-37” value is more than 10 µM.

B1: M-CSF: Recombinant human M-CSF, produces macrophage 2 (Mφ2) (protein, UniProt P09603 33-554, looked up)
Macrophage colony-stimulating …: EEVSEYCSHMIGSGHLQSLQRLIDSQMETSCQITFEFVDQEQLKDPVCYLKKAFLLVQDIMEDTMRFRDNTPNAIAIVQLQELSLRLKSCFTKDYEEHDKACVRTFYETPLQLLEKVKNVFNETKNLLDKDWNIFSKNCNNSFAECSSQDVVTKPDCNCLYPKAIPSSDPASVSPHQPLAPSMAPVAGLTWEDSEGTEGSSLLPGEQPLHTVDPGSAKQRPPRSTCQSFEPPETPVVKDSTIGGSPQPRPSVGAFNPGMEDILDSAMGTNWVPEEASGEASEIPVPQGTELSPSRPGGGSMQTEPARPSNFLSASSPLPASAKGQQPADVTGTALPRVGPVRPTGQDWNHTPQKTDHPSALLRDPPEPGSPRISSLRPQGLSNPSTLSAQPQLSRSHSSGSVLPLGELEGRRSTRDRRSPAEPEGGPASEGAARPLPRFNSVPLTDTGHERQSEGSFSPQLQESVFHLLVPSVILVLLAVGGLLFYRWRRRSHQEPQRADSPLEQPEGSPLTQDDRQVELPV
In the data set with monocytes [1], B1 had an FGF-Basic release of 11.54 ± 0.31, a G-CSF release of 75.71 ± 5.78, a GM-CSF release of 25.2 ± 5.51 and an HGF release of 664.33 ± 112.85. In addition, in the data set with monocytes [1], the IFN-α release is listed as 19.83 ± 1.19, the IFN-γ release was found to be 14.67 ± 1.06, the IL-2R release was determined as 44.62 ± 4.89 and the IL-4 release was 11.07 ± 0.95. In the data set on monocytes [1], this molecule showed an IL-7 release of 24.83 ± 1.68, an MCP-1 release of 34236.5 ± 1606.8, an MIG release of 15.39 ± 2.01 and an MIP-1α release of 41.62 ± 2.63. In the data set with monocytes [1], this molecule yielded an MIP-1β release of 47.26 ± 1.46, an RANTES release of 10.19 ± 1.38 and a VEGF release of 22.12 ± 1.39.

(Values after patent publication US9005969B2, “Generation of novel bone forming cells (monoosteophils) from LL-37 treated monocytes” (City of Hope, priority 2010, dated 2015).)
